According to article PMC6072471 (MedChemComm, 2017):

Key:
[1] = tested on: rVSIV-ΔG-MarV-GP pseudotype; assay: organism not typed; assay type: cell-based, Marburg virus; conditions: for IC50: HEK293, 24 h, read-out: ICMarV50
rVSIV-ΔG-G pseudotype = assay: microbe, parasite or virus in culture; assay type: cell-based, Vesicular stomatitis Indiana virus; conditions: for IC50: Vesicular stomatitis Indiana virus, HEK293, 24 h, read-out: ICVSIV50

Compound	toxicity (in words) (HEK293 cells)	activity against rVSIV-ΔG-MarV-GP (in words) [1]	IC50 [1] [µM]	activity against rVSIV-ΔG-G (in words) (rVSIV-ΔG-G pseudotype)	IC50 (rVSIV-ΔG-G pseudotype) [µM]	specificity of inhibition of MarV-GP-mediated infection (in words) [1]
CC1(C)[C@H]2CC[C@]1(C)[C@H](O)C2 [(–)-Borneol, reference compound]	nontoxic	not active	203	not active	> 650	–
CC1(C)[C@H]2CC[C@]1(C)[C@H](OC(=O)CN1CCCC1)C2 [Compound 1]	–	–	52 ± 5	–	239 ± 19	non-specific inhibitors
CC1(C)[C@H]2CC[C@]1(C)[C@H](OC(=O)CCN1CCCC1)C2 [Compound 2]	–	–	12 ± 1	–	29 ± 6	non-specific inhibitors
CC1(C)[C@H]2CC[C@]1(C)[C@H](OC(=O)CN1CCCCC1)C2 [Compound 3]	–	–	86 ± 11	–	102 ± 9	–
CC1(C)[C@H]2CC[C@]1(C)[C@H](OC(=O)CCN1CCCCC1)C2 [Compound 4]	–	–	9 ± 1	–	121 ± 7	–
CC1CCN(CC(=O)O[C@@H]2C[C@@H]3CC[C@@]2(C)C3(C)C)CC1 [Compound 5]	–	–	28 ± 2	–	77 ± 16	–
CC1CCN(CCC(=O)O[C@@H]2C[C@@H]3CC[C@@]2(C)C3(C)C)CC1 [Compound 6]	–	–	4 ± 1	–	79 ± 19	highest virus-specific activity
CC1(C)[C@H]2CC[C@]1(C)[C@H](OC(=O)CN1CCOCC1)C2 [Compound 7]	–	do not exhibit activity	263 ± 24	–	267 ± 10	–
CC1(C)[C@H]2CC[C@]1(C)[C@H](OC(=O)CCN1CCOCC1)C2 [Compound 8]	–	do not exhibit activity	78 ± 7	–	257 ± 12	–
CN1CCN(CC(=O)O[C@@H]2C[C@@H]3CC[C@@]2(C)C3(C)C)CC1 [Compound 9]	–	–	47 ± 3	–	187 ± 24	–
CN1CCN(CCC(=O)O[C@@H]2C[C@@H]3CC[C@@]2(C)C3(C)C)CC1 [Compound 10]	–	–	19 ± 1	–	318 ± 23	–
CCN1CCN(CC(=O)O[C@@H]2C[C@@H]3CC[C@@]2(C)C3(C)C)CC1 [Compound 11]	–	–	29 ± 2	–	447 ± 15	–
CCN1CCN(CCC(=O)O[C@@H]2C[C@@H]3CC[C@@]2(C)C3(C)C)CC1 [Compound 12]	–	–	10 ± 2	–	106 ± 5	–
CC1(C)[C@H]2CC[C@]1(C)[C@H](OC(=O)CN1CCNCC1)C2 [Compound 13]	–	–	20 ± 1	–	69 ± 13	–
CC1(C)[C@H]2CC[C@]1(C)[C@H](OC(=O)CCN1CCNCC1)C2 [Compound 14]	–	–	10 ± 4	–	102 ± 25	–
CCCCN(CCCC)CC(=O)O[C@@H]1C[C@@H]2CC[C@@]1(C)C2(C)C [Compound 15]	highest toxicity	–	11 ± 1	–	20 ± 1	–
CCCCN(CCCC)CCC(=O)O[C@@H]1C[C@@H]2CC[C@@]1(C)C2(C)C [Compound 16]	highest toxicity	–	6 ± 1	–	48 ± 5	–
COc1ccc(CCN(C)CCCC(C#N)(c2ccc(OC)c(OC)c2)C(C)C)cc1OC (stereo not shown) [Verapamil, reference compound]	–	–	13 ± 1	–	> 200	–
